Assay results: patent publication US9694090B2, “Process for preparing hyperpolarized substrates and method for MRI” (priority 2010, dated 2017)

Key:
[1] = DNP solid-state polarization signal and build-up (1.2 K, 3.35 T); settings: DNP at 1.2 K
Protocol: To this solution 1.1 mg (0.77 μmol) radical 1 was added. […] This entire sample was hyperpolarized under DNP conditions at 1.2 K in a 3.35 T magnetic field under irradiation with microwave (93.900 GHz) until the polarization was fully build-up. The polarization was monitored in solid state with small pulse angles (5 degree) collected every 300 s.
This entire sample was polarized under DNP conditions at 1.2 K in a 3.35 T magnetic field under irradiation with microwave (93.900 GHz) until the polarization was fully built-up. The polarization was monitored in solid state with small pulse angles (5 degree) collected every 300 s.
To this solution 0.77 mg (0.54 μmol) radical 1 was added. […] This entire sample was polarized under DNP conditions at 1.2 K in a 3.35 T magnetic field under irradiation with microwave (93.900 GHz) until the polarization was fully built-up. The polarization was monitored in solid state with small pulse angles (5 degree) collected every 300 s.
To this solution 1.65 mg (1.15 μmol) radical 1 was added. […] This entire sample was polarized under DNP conditions at 1.2 K in a 3.35 T magnetic field under irradiation with microwave (93.900 GHz) until the polarization was fully built-up. The polarization was monitored in solid state with small pulse angles (5 degree) collected every 300 s.
63.2 mg (0.33 mmol) of this sample was hyperpolarized under DNP conditions at 1.2 K in a 3.35 T magnetic field under irradiation with microwave (93.900 GHz) until the polarization was fully built-up.

[2] = Glass formation of the DNP preparation upon rapid freezing in liquid nitrogen; type: physicochemical; settings: for Glass formation upon rapid freezing in liquid nitrogen: dissolved in 12 M NaOH with radical 1; for Glass formation upon rapid freezing: with trityl radical, without addition of glass-forming agents
Protocol: Butyric acid (11.7 mg, 0.13 mmol) was placed into an Eppendorf tube and mixed with 9.0 mg of a glycerol solution containing 39 mM of Radical 1. This preparation was 7 M with respect to butyric acid.
Butyric anhydride (40 μl, 0.24 mmol) was added to an Eppendorf tube and mixed with 1 mg of Radical 3 in a total concentration of 15 mM. This preparation was 6.5 M with respect to butyric anhydride (which, upon hydrolysis provides a 13 M concentration in butyric acid molecules).
Butyric acetic anhydride (36 μl, 0.28 mmol) was added to an Eppendorf tube and mixed with 0.85 mg of acid form of Radical 3 in a total concentration of 15 mM. This preparation was 7.5 M with respect to butyric acetic acid.
Li-acetoacetate (22.4 mg, 0.21 mmol) was added to an Eppendorf tube and mixed with 28 μl of a DMSO preparation (25 mM Radical 3 and 0.8 mM 3-Gd). This preparation was 4 M with respect to Li-acetoacetate.
To an Eppendorf tube was added diketene (9.6 mg, 0.11 mmol) and mixed with 4.7 mg of a DMSO preparation of Radical 3 (45 mM) and 3-Gd (1.5 mM). This preparation was 8.5 M with respect to diketene.
Ethyl acetoacetate (45 μl, 0.34 mmol) was added to an Eppendorf tube and mixed with acid form of Radical 2 (0.7 mg, 0.65 μmol) in a total concentration of 15 mM. This preparation was 8 M with respect to ethyl acetoacetate.
Cis-aconitic acid (18.6 mg, 0.11 mmol) was added to an Eppendorf tube and mixed with a 32.5 μl DMSO preparation (25 mM Radical 3 and 0.8 mM 3-Gd). This preparation was 2.5 M with respect to cis-aconitic acid.
Cis-aconitic anhydride (188 mg, 1.2 mmol) was added to an Eppendorf tube and mixed with 2.85 mg (2 μmol) of Radical 1 and 0.98 mg of a 83 μmol/g solution of 3-Gd. This preparation was 9 M with respect to cis-aconitic anhydride.
Succinic acid (42.1 mg, 0.35 mmol) was added to an Eppendorf tube and mixed and mixed with 92 mg of a DMSO preparation (20 mM Radical 3 and 0.8 mM 3-Gd). This preparation was 4 M with respect to succinic acid.
Succinic anhydride (21.5 mg, 0.21 mmol) was added to an Eppendorf tube and mixed with 21.8 mg of a DMSO solution of Radical 3 (30 mM) and of 3-Gd (1 mM). This preparation was 6 M with respect to succinic anhydride.
Succinic-(1)-ethyl ester (111 mg, 0.75 mmol) was added to an Eppendorf tube and mixed with the carboxylic acid form of Radical 2 (2.4 mg, 1.5 μmol) and 3-Gd (3.4 μl of a 14.5 mM solution in water). This preparation was 6 M with respect to succinic-(1)-ethyl ester.
(§1) L-Glutamine (50.9 mg, 0.35 mmol) was added to an Eppendorf tube and dissolved in 29 μl of 12 M NaOH and mixed with 1.7 mg of radical 1 and 3-Gd (2.3 μl of a 14.5 mM water stock solution). This preparation was 4 M with respect to L-glutamine.

[3] = Hydrolysis of the DNP hyperpolarized precursor on dissolution with strong base, followed by 13C-NMR time series; type: physicochemical; settings: water with added NaOH
Protocol: (§2) The composition from example 1b (25 mg, 0.16 mmol) was transferred from the Eppendorf tube to a sample cup and the sample cup was inserted into a DNP polariser. The composition was hyperpolarised under DNP conditions at 1.2 K in a 3.35 T magnetic field under irradiation with microwave (93.915 GHz). The sample was hyperpolarized for 75 min.
The sample was dissolved in 4 ml water with added NaOH (50 μl of 12M solution). The pH of the dissolved sample was 12. The solution was collected directly into a 10 mm NMR tube and transferred to a 14.1 T magnet where a time series of 5 degree 1D 13C-NMR spectra were recorded with a total delay between the pulses of 1 s.
as §2, with “is (33” for “1b (25”, “0.25” for “0.16”, “90” for “75”
The sample was dissolved in 5 ml water with added NaOH (125 μl of 12M). The solution was collected directly into a 10 mm NMR tube and transferred to a 14.1 […]) T magnet where a time series of 5 degree 1D 13C-NMR spectra were recorded with a total delay between the pulses of 1 s.
(§3) The entire composition from example 2b was transferred from the Eppendorf tube to a sample cup and the sample cup was inserted into a DNP polariser. The composition was hyperpolarised under DNP conditions at 1.2 K in a 3.35 T magnetic field under irradiation with microwave (93.915 GHz). The sample was hyperpolarized for 3 hours.
(§4) The sample was dissolved in 5 ml water with added NaOH (125 μl of 12 M). The solution was collected directly into a 10 mm NMR tube and transferred to a 14.1 T magnet (pH 13) where a time series of 64 five degree 1D 13C-NMR spectra were recorded with a total delay between the pulses of 3 s.
as §2, with “is (20.5” for “1b (25”, “2 hours.” for “75 min.”
(§5) The sample was dissolved in 5 ml water with added NaOH (200 μl of 12 M). The solution was collected directly into a 10 mm NMR tube and transferred to a 14.1 T magnet (pH 12.8) where a time series of 5 degree 1D 13C-NMR spectra were recorded with a total delay between the pulses of 3 s.
as §3, with “The” for “The entire”, “2b was melted on a water-bath and stirred with a magnetic stirrer. 45 mg of this preparation (0.29 mmol)” for “2b”, “90 min.” for “3 hours.”
(§6) The sample was dissolved in 6 ml water with added NaOH (190 μl of 12 M). The solution was collected directly into a 10 mm NMR tube and transferred to a 14.1 T magnet (pH 12.8) where a time series of 64 five degree 1D 13C-NMR spectra were recorded with a total delay between the pulses of 3 s.

[4] = Glass formation of the DNP preparation upon rapid freezing in liquid nitrogen; type: physicochemical; settings: dissolved in heated water with Radical 1 and 3-Gd
[5] = system: carboxylic-ester hydrolase from porcine liver; assay: Enzymatic hydrolysis of the hyperpolarized ester with esterase, 13C-NMR time series; type: biochemical; settings: approximately 270 U esterase, phosphate buffer pH 7.3, 37° C.
Excerpt: The ester was fully hydrolyzed to acetoacetate after 12s.

[6] = biological target: T1, acylase from porcine kidney (Sus scrofa, UniProt P37111); assay: Enzymatic hydrolysis of the hyperpolarized N-acetyl amino acid with acylase, 13C-NMR time series; type: biochemical; settings: phosphate buffer pH 7.3, 37° C.
T1 construct: an acylase from porcine kidney; from tissue; host or cells: porcine kidney
T1 sequence (P37111 2-407 limits assumed): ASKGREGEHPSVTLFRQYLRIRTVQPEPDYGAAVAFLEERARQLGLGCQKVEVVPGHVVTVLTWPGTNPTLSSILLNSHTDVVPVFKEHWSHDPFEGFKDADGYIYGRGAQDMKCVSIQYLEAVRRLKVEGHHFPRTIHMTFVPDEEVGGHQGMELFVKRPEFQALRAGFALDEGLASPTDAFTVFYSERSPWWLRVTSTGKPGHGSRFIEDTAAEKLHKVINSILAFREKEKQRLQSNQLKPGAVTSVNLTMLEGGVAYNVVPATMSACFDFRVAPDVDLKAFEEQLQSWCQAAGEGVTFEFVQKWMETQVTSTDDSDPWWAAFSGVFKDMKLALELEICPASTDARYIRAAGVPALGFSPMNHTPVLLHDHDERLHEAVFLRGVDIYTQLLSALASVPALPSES
Protocol: The sample was hyperpolarized for 60 min.
The 10 mm NMR tube contained a 1 ml phosphate solution of approximately 90 U of an acylase from porcine kidney.
35 mg of N-acetyl glycine (117.1 g/mol, 0.298 mmol) was dissolved in 26 μl 12 M NaOH. Heating, sonication and vortexing was applied to create a clear glassing solution. The total weight of the sample was 71 mg (50 μl weigh 65 mg). 1.05 mg Radical 1 and 1.5 μl of a 3-Gd stock solution ([…]) was added. The total N-acetyl glycine concentration in the sample was 5.5 M, the radical concentration was 13.5 mM, and the 3-Gd concentration was 0.4 mM.
The sample was dissolved in 7 ml 40 mM phosphate buffer (40 mM, pH 7.3). […] The 10 mm NMR tube contained a 500 μl phosphate solution of approximately 230 U of an acylase (5.2 mg) from porcine kidney.

[7] = Degradation / isomerisation of the substrate in DNP preparation and dissolution (NMR)
Protocol: as §3, with “2a” for “2b”, “75 min.” for “3 hours.”
The sample was dissolved in 5 ml phosphate buffer pH 7.3 (40 mM+EDTA).
The solution was collected directly into a 10 mm NMR tube and transferred to a 14.1 T magnet where a 90 degree 1D 13C-NMR spectrum was recorded.
as §4, §5
The sample was dissolved in 5 ml 40 mM phosphate buffer pH 7.3+100 mg/l EDTA, thus resulting in an ester concentration of 20 mM. 1 ml of the ester solution was injected through a transfer line into a 10 mm NMR tube placed at 14.1 T and 37° C. The 10 mm NMR tube contained a 500 μl solution of approximately 270 U of a carboxylic-ester hydrolase from porcine liver. A time series of 10 degree 1D 13C-NMR spectra were recorded with a total delay between the pulses of 3 s.
as §5, with “phosphate buffer (40 mM, pH 7.3)” for “water”, “30” for “NaOH (200”, “μl” for “μl of”, “M NaOH. […]” for “M).”, “magnet” for “magnet (pH 12.8)”
as §6, §1
N-acetyl-L-glutamine (57.2 mg, 0.3 mmol) was added to an Eppendorf tube and dissolved in 25.3 μl of 12 M NaOH and mixed with 1.9 mg of radical 1 and 3-Gd (2.3 μl of a 14.5 mM water stock solution).

Glass formation upon rapid freezing [2]	SMILES	Polarization build-up time constant [1] [s]	Glass formation upon rapid freezing in liquid nitrogen [2]	other results
	C=C(CC(=O)O)[13C](=O)O [1-13C Itaconic acid, reference compound]	1790	formed a glass	
	O=C1N[C@H]([13C](=O)O)CS1 [1-13C OTZ, 1-13C-L-oxothiazolidine-4-carboxylic acid, reference compound]	3500	formed a glass	
	O=C1CCC([13C](=O)O)N1 (centres unmarked) [1-13C Pyroglutamic acid, reference compound]	2000	formed a glass	
formed a glass	CCOC(=O)C1CCC(=O)N1 (centres unmarked) [1-13C pyroglutamic ethyl ester]	2070		Precursor hydrolyzed ([3]; in less than 10 s, pH 11-12.6): at least 95%
	O=C([O-])CCC(=O)C(=O)[O-].[Na+].[Na+] [2-oxoglutarate sodium salt]			Glass formation upon rapid freezing in liquid nitrogen [4]: formed a glass
formed a glass	CCOC(=O)CC(C)=O [Ethyl acetoacetate]			Precursor hydrolyzed ([3]; after 10 s, pH 12-13): approximately 20%; Time after which ester was fully hydrolyzed [5]: 12 s
	CC(=O)NCC(=O)O [N-acetyl glycine]			Time after which precursor was fully hydrolyzed ([6]; approximately 230 U acylase): 30 s
	CC(=O)N[C@@H](CCC(N)=O)C(=O)O [N-acetyl-L-glutamine]		formed a glass	Time after which precursor was fully hydrolyzed ([6]; approximately 90 U acylase): 45 s; Degradation in the DNP preparation [7]: does not degrade; Degradation in the dissolution process ([7]; pH 7.3): does not degrade

SMILES	Glass formation upon rapid freezing [2]	Polarization build-up time constant [1] [s]	Glass formation upon rapid freezing in liquid nitrogen [2]	other results
CCO[13C](=O)C1CSC(=O)N1 (centres unmarked) [1-13C OTZ ethyl ester]	formed a glass	1925		
